Source: the supplement of paper PMC10331698
± gives the standard deviation of the averaged measurements.

What was measured:
Test in all cases: level (log10 ratio to DMSO vehicle control); higher = higher biomarker level / cell amount than vehicle control
Settings in all cases: in DMSO
[1] = compound: NS(=O)(=O)C(F)(F)C(F)(F)C(F)(F)C(F)(F)C(F)(F)C(F)(F)F [Perfluorohexanesulfonamide]
Method: (§1)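 BioMAP Diversity Plus panel of 12 human primary cell co-culture systems (3C, 4H, LPS, SAg, BT, BF4T, BE3C, CASM3C, HDF3CGF, KF3CT, MyoF, Mphg). Compounds were added 1 h before stimulation and left for 24 h (MyoF 48 h; BT 72 h for soluble read-outs or 6 d for IgG). Biomarkers were read by ELISA, cytotoxicity by SRB, PBMC viability and proliferation by Alamar Blue. Each well value was divided by the mean of 8 DMSO control wells on the same plate and log10 transformed; duplicate blinded samples were tested at 4 concentrations.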

[2] = compound: O=S(=O)(Cl)C(F)(F)C(F)(F)C(F)(F)C(F)(F)C(F)(F)C(F)(F)C(F)(F)C(F)(F)F [Perfluoro-1-octanesulfonyl chloride]
Method: as §1

[3] = compound: FC(F)(F)C(F)(F)C(F)(F)CC1CO1 [1H,1H-Heptafluorobutyl epoxide]
Method: as §1

[4] = compound: O=S(=O)(F)C(F)(F)C(F)(F)C(F)(F)C(F)(F)C(F)(F)C(F)(F)C(F)(F)C(F)(F)F [Perfluorooctanesulfonyl fluoride]
Method: as §1

Hexafluoroamylene glycol = compound: OCC(F)(F)C(F)(F)C(F)(F)CO [Hexafluoroamylene glycol]
Method: as §1

Nonafluoropentanamide = compound: NC(=O)C(F)(F)C(F)(F)C(F)(F)C(F)(F)F [Nonafluoropentanamide]
Method: as §1

Test System	level (log10) ([1]; 6700 nM)	level (log10) ([1]; 20000 nM)	level (log10) ([1]; 60000 nM)	level (log10) ([2]; 6700 nM)	level (log10) ([2]; 20000 nM)	level (log10) ([2]; 60000 nM)	level (log10) ([3]; 6700 nM)	level (log10) ([3]; 20000 nM)	level (log10) ([3]; 60000 nM)	level (log10) ([4]; 6700 nM)	level (log10) ([4]; 20000 nM)	level (log10) ([4]; 60000 nM)	level (log10) (Hexafluoroamylene glycol; 6700 nM)	level (log10) (Hexafluoroamylene glycol; 20000 nM)	level (log10) (Hexafluoroamylene glycol; 60000 nM)	level (log10) (Nonafluoropentanamide; 6700 nM)	level (log10) (Nonafluoropentanamide; 20000 nM)	level (log10) (Nonafluoropentanamide; 60000 nM)
BE3C:Keratin 8/18	0.0065 ± 0.012	0.0055 ± 0.033	-0.033 ± 0.025	-0.0025 ± 0.0021	0.003 ± 0.0028	-0.106 ± 0.05	-0.0125 ± 0.011	0.019 ± 0.021	0.011 ± 0.047	-0.012 ± 0.0014	-0.01 ± 0.016	-0.0105 ± 0.005	0.002 ± 0.018	-0.0155 ± 0.013	0.002 ± 0.02	-0.0245 ± 0.0064	-0.035 ± 0.013	-0.026 ± 0.0099
BE3C:MMP-1	0.0255 ± 0.015	0.0645 ± 0.0035	0.195 ± 0.02	0.075 ± 0.03	0.27 ± 0.012	-0.178 ± 0.047	0.003 ± 0.027	0.002 ± 0.055	0.041 ± 0.092	-0.0045 ± 0.00071	-0.001 ± 0.014	-0.0005 ± 0.013	-0.009 ± 0.017	-0.03 ± 0.0057	0.015 ± 0.025	0.003 ± 0.0071	0.052 ± 0.075	0.0795 ± 0.023
BE3C:MMP-9	-0.0585 ± 0.015	-0.0435 ± 0.005	-0.131 ± 0.028	-0.018 ± 0.0042	0.0275 ± 0.0078	-0.35 ± 0.037	-0.0065 ± 0.0078	0.015 ± 0.014	-0.013 ± 0.0014	-0.025 ± 0.024	-0.02 ± 0.0042	-0.026 ± 0.0071	-0.014 ± 0.0099	-0.01 ± 0.0057	0.008 ± 0.033	-0.0405 ± 0.03	-0.026 ± 0.0071	-0.0095 ± 0.005
BE3C:PAI-I	-0.055 ± 0.062	-0.087 ± 0.079	-0.165 ± 0.068	0.0265 ± 0.011	0.0055 ± 0.019	-0.416 ± 0.054	0.0035 ± 0.0092	0.0075 ± 0.005	0.0165 ± 0.025	-0.021 ± 0.0099	-0.022 ± 0.052	-0.0135 ± 0.056	-0.0205 ± 0.0021	-0.017 ± 0.0042	0.0115 ± 0.0021	-0.087 ± 0.033	-0.137 ± 0.052	-0.117 ± 0.044
BE3C:SRB	-0.0065 ± 0.00071	-0.022	-0.058 ± 0.0099	-0.001 ± 0.0014	-0.049 ± 0.0057	-0.659 ± 0.019	-0.0035 ± 0.00071	0.0015 ± 0.00071	0.007	-0.003 ± 0.0014	0.0005 ± 0.005	0.0045 ± 0.021	-0.002 ± 0.0014	-0.006 ± 0.0028	0.0075 ± 0.0021	0.0035 ± 0.011	0.0065 ± 0.0035	-0.0005 ± 0.005
BE3C:tPA	-0.0075 ± 0.035	0.0005 ± 0.016	-0.245 ± 0.059	0.01 ± 0.047	0 ± 0.04	-0.359 ± 0.11	-0.0115 ± 0.06	-0.0245 ± 0.03	-0.0375 ± 0.026	-0.045 ± 0.075	-0.027 ± 0.034	-0.027 ± 0.027	-0.0205 ± 0.00071	-0.02 ± 0.0057	0.011 ± 0.031	0.003 ± 0.0085	0.008 ± 0.017	0.0095 ± 0.012
BE3C:uPA	-0.0115 ± 0.032	0.0025 ± 0.037	-0.0365 ± 0.037	-0.006 ± 0.0028	0.0085 ± 0.0064	-0.133 ± 0.059	-0.022 ± 0.014	-0.004 ± 0.0042	-0.0065 ± 0.00071	0.0045 ± 0.0021	-0.011 ± 0.0057	0.004 ± 0.014	-0.0055 ± 0.0078	-0.013 ± 0.0014	-0.004	0.0115 ± 0.016	0.009 ± 0.0099	0.0105 ± 0.0078
CASM3C:CCL2/MCP-1	-0.006 ± 0.0014	0.0015 ± 0.012	0.028 ± 0.017	-0.0025 ± 0.0078	-0.0115 ± 0.0092	0.031 ± 0.044	-0.007 ± 0.023	-0.0275 ± 0.00071	0.004 ± 0.014	-0.004 ± 0.014	-0.0035 ± 0.005	0.0055 ± 0.03	-0.0085 ± 0.0064	-0.014 ± 0.011	0.012 ± 0.047	-0.014 ± 0.0028	0.001 ± 0.0099	-0.001 ± 0.0014
CASM3C:CD87/uPAR	-0.01 ± 0.0071	-0.028 ± 0.0028	-0.029 ± 0.033	-0.0235 ± 0.054	-0.0285 ± 0.054	-0.0155 ± 0.069	-0.023 ± 0.0057	-0.017 ± 0.035	-0.019 ± 0.017	0.0105 ± 0.0035	0.0065 ± 0.005	0.0225 ± 0.012	0.003 ± 0.021	0.0125 ± 0.011	-0.0195 ± 0.035	-0.0215 ± 0.013	-0.023 ± 0.0014	0.0025 ± 0.00071
CASM3C:CD141/Thrombomodulin	-0.022 ± 0.025	-0.0305 ± 0.021	0.016 ± 0.014	-0.019 ± 0.011	0.012 ± 0.017	0.03 ± 0.0071	-0.0145 ± 0.047	-0.0265 ± 0.018	0.001 ± 0.035	-0.004 ± 0.0042	-0.01 ± 0.0014	-0.0075 ± 0.005	0.009 ± 0.041	0 ± 0.05	0.0135 ± 0.037	0.011 ± 0.089	-0.024 ± 0.064	-0.0285 ± 0.06
CASM3C:CD142/Tissue Factor	-0.0145 ± 0.023	-0.0275 ± 0.012	0.0175 ± 0.018	-0.0095 ± 0.04	-0.0455 ± 0.037	-0.0595 ± 0.032	-0.0165 ± 0.016	-0.037 ± 0.027	-0.039 ± 0.02	0.018 ± 0.0014	0.0095 ± 0.0035	0.0025 ± 0.005	-0.0025 ± 0.016	-0.0125 ± 0.0035	0.008 ± 0.024	0.0195 ± 0.13	0.0125 ± 0.026	-0.031 ± 0.028
CASM3C:CXCL8/IL-8	-0.0235 ± 0.0035	-0.014 ± 0.014	0.001 ± 0.0085	-0.021 ± 0.0057	-0.0125 ± 0.013	0.015 ± 0.035	0 ± 0.017	0.0005 ± 0.0078	-0.0035 ± 0.00071	0.0025 ± 0.00071	-0.0035 ± 0.0035	0.0035 ± 0.016	0.028 ± 0.023	-0.0055 ± 0.021	0.0015 ± 0.021	-0.003 ± 0.018	-0.0105 ± 0.012	0.0065 ± 0.018
CASM3C:CXCL9/MIG	0.003 ± 0.0042	-0.0065 ± 0.005	-0.003 ± 0.023	0.0015 ± 0.052	0.013 ± 0.035	0.0735 ± 0.033	-0.01 ± 0.011	-0.0145 ± 0.023	0.004 ± 0.013	-0.0025 ± 0.00071	0.001 ± 0.0057	0.0075 ± 0.011	-0.03 ± 0.011	-0.0225 ± 0.016	0.009 ± 0.024	-0.011 ± 0.013	-0.029 ± 0.051	-0.0075 ± 0.074
CASM3C:HLA-DR	0.002 ± 0.03	0 ± 0.0071	0.005 ± 0.0042	-0.022 ± 0.014	-0.053 ± 0.017	-0.04 ± 0.064	-0.014 ± 0.0099	-0.017 ± 0.0028	-0.0165 ± 0.016	0.0065 ± 0.022	-0.0035 ± 0.0092	0.008 ± 0.0057	0.014 ± 0.016	0.0095 ± 0.015	-0.0015 ± 0.028	-0.0315 ± 0.005	-0.0005 ± 0.036	-0.0275 ± 0.021
CASM3C:M-CSF	0.009 ± 0.035	0.0295 ± 0.012	0.119 ± 0.0035	0.008 ± 0.014	0.0095 ± 0.018	0.0425 ± 0.005	-0.0205 ± 0.029	-0.015 ± 0.0042	-0.014 ± 0.033	0.0005 ± 0.013	-0.0185 ± 0.028	0.0085 ± 0.021	-0.0075 ± 0.013	-0.0195 ± 0.028	0.0135 ± 0.044	-0.0105 ± 0.0021	-0.0075 ± 0.019	0.0195 ± 0.035
HDF3CGF:CCL2/MCP-1	0.0185 ± 0.016	0.047 ± 0.018	0.091 ± 0.014	-0.026 ± 0.038	-0.0505 ± 0.021	-0.0235 ± 0.028	-0.0325 ± 0.032	-0.034 ± 0.02	-0.02 ± 0.0099	-0.0035 ± 0.028	0.007 ± 0.023	-0.007 ± 0.072	-0.003 ± 0.0071	-0.004 ± 0.0057	0.007 ± 0.0071	-0.0025 ± 0.019	0.0065 ± 0.012	0.01 ± 0.035
HDF3CGF:CD54/ICAM-1	-0.005 ± 0.0028	-0.0155 ± 0.012	-0.0225 ± 0.005	0.039 ± 0.023	0.034 ± 0.051	0.0005 ± 0.03	-0.0045 ± 0.022	-0.0115 ± 0.04	-0.0215 ± 0.06	-0.013 ± 0.018	-0.011 ± 0.0014	-0.006 ± 0.013	-0.0065 ± 0.016	0.0015 ± 0.012	0.009	-0.0065 ± 0.011	-0.01 ± 0.0085	0 ± 0.0042
